{"source": "patent US6225478A", "about": "“Iridoid derivatives and neovascularization inhibitors containing the same as active ingredient” (Tsumura & Co., priority 1999, dated 2001)", "key": {"[1]": {"tested_on": "human umbilical-vein endothelial cells (HUVEC)", "test": "Tube Formation Assay (TFA) Test, HUVEC in collagen gel", "type": "cell-based", "conditions": "Homo sapiens, HUVEC, Tables 75-83; 0.32 mM sample solution; method as for Compounds 1 through 60; read-out: TFA Inhibition rate (%)", "summary_of_the_method": "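HUVEC (7th subculture, 1×10^5 cells/ml) attached to collagen gel for 2 h at 37 °C, given sample and overlaid with collagen, then cultured 20 h at 37 °C, 5% CO2 in M-199 with 20% FCS, 30 ng/ml b-FGF and 0.1 μM PMA. Tube length measured by image analysis; % inhibition relative to positive and negative controls.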"}, "HUFEC": {"tested_on": "HUFEC", "test": "Cell Migration Assay (CMA) Test, inhibitory rate with control (-) correction", "type": "cell-based, human", "conditions": "Homo sapiens, 24 h, 125 μl of 0.32 mM sample solution in 4.0 ml medium, 80% or more = remarkable", "summary_of_the_method": "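Confluent HUFEC monolayers were scratch-wounded, then cultured 24 h at 37 °C, 5% CO2 in M199 (2+) medium with compound added as 125 μl of a 0.32 mM solution (3.2% DMSO) per 4 ml. Giemsa-stained cells migrating into 1 mm×1 mm blocks counted; inhibition % calculated relative to control (+) and control (−) wells.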"}}}
{"smiles": "COC(=O)C1=CO[C@@H](OC(=O)Nc2cccc(C#N)c2)[C@H]2[C@@H]1CC[C@@H]2C", "note": "[I-267]", "values": [{"measurement": "inhibition at 320 µM (stock)", "setting": "[1]", "value": 5.8, "unit": "%"}, {"measurement": "inhibition at 320 µM (stock)", "setting": "HUFEC", "value": 14.9, "unit": "%"}]}
{"smiles": "COC(=O)C1=CO[C@@H](OC(=O)NCCc2ccc(O)c(OC)c2)[C@@H]2C(C)=CC[C@H]12", "note": "[I-146]", "values": [{"measurement": "inhibition at 320 µM (stock)", "setting": "[1]", "value": 7.8, "unit": "%"}, {"measurement": "inhibition at 320 µM (stock)", "setting": "HUFEC", "value": 17.2, "unit": "%"}]}
{"smiles": "COC(=O)C1=CO[C@@H](OC(=O)Nc2ccccc2F)[C@@H]2C(C)=CC[C@H]12", "note": "[I-158]", "values": [{"measurement": "inhibition at 320 µM (stock)", "setting": "[1]", "value": 8.5, "unit": "%"}, {"measurement": "inhibition at 320 µM (stock)", "setting": "HUFEC", "value": 7.3, "unit": "%"}]}
{"smiles": "COC(=O)C1=CO[C@@H](OC(=O)NCc2ccncc2)[C@@H]2C(C)=CC[C@H]12", "note": "[I-116]", "values": [{"measurement": "inhibition at 320 µM (stock)", "setting": "[1]", "value": 6.9, "unit": "%"}, {"measurement": "inhibition at 320 µM (stock)", "setting": "HUFEC", "value": 5.6, "unit": "%"}]}
{"smiles": "CCOC(=O)C1=CO[C@@H](OC(=O)NC)[C@@H]2C(C)=CC[C@H]12", "note": "[I-312]", "values": [{"measurement": "inhibition at 320 µM (stock)", "setting": "[1]", "value": 41.8, "unit": "%"}, {"measurement": "inhibition at 320 µM (stock)", "setting": "HUFEC", "value": 34.9, "unit": "%"}]}
{"smiles": "COC(=O)C1=CO[C@@H](OC(=O)NCCc2ccc(O)cc2)[C@H]2[C@@H]1CC[C@@H]2C", "note": "[I-206]", "values": [{"measurement": "inhibition at 320 µM (stock)", "setting": "[1]", "value": 14.2, "unit": "%"}, {"measurement": "inhibition at 320 µM (stock)", "setting": "HUFEC", "value": 33.6, "unit": "%"}]}
{"smiles": "COC(=O)C1=CO[C@@H](OC(=O)NCCCl)[C@@H]2C(C)=CC[C@H]12", "note": "[I-173]", "values": [{"measurement": "inhibition at 320 µM (stock)", "setting": "[1]", "value": 11.4, "unit": "%"}, {"measurement": "inhibition at 320 µM (stock)", "setting": "HUFEC", "value": 108, "unit": "%"}]}
{"smiles": "COC(=O)C1=CO[C@@H](OC(=O)N2CCC(Cc3ccccc3)CC2)[C@@H]2C(C)=CC[C@H]12", "note": "[I-94]", "values": [{"measurement": "inhibition at 320 µM (stock)", "setting": "[1]", "value": 6.2, "unit": "%"}, {"measurement": "inhibition at 320 µM (stock)", "setting": "HUFEC", "value": 3.9, "unit": "%"}]}
{"smiles": "COC(=O)C1=CO[C@@H](OC(=O)N(C)Cc2ccccc2)[C@H]2[C@@H]1CC[C@@H]2C", "note": "[I-184]", "values": [{"measurement": "inhibition at 320 µM (stock)", "setting": "[1]", "value": 7.4, "unit": "%"}, {"measurement": "inhibition at 320 µM (stock)", "setting": "HUFEC", "value": 37.1, "unit": "%"}]}
{"smiles": "COC(=O)C1=CO[C@@H](OC(=O)Nc2ccccc2F)[C@H]2[C@@H]1CC[C@@H]2C", "note": "[I-257]", "values": [{"measurement": "inhibition at 320 µM (stock)", "setting": "[1]", "value": 3.5, "unit": "%"}, {"measurement": "inhibition at 320 µM (stock)", "setting": "HUFEC", "value": 8, "unit": "%"}]}
{"smiles": "COC(=O)CNC(=O)O[C@@H]1OC=C(C(=O)OC)[C@H]2CC[C@H](C)[C@@H]12", "note": "[I-246]", "values": [{"measurement": "inhibition at 320 µM (stock)", "setting": "[1]", "value": 4.9, "unit": "%"}, {"measurement": "inhibition at 320 µM (stock)", "setting": "HUFEC", "value": 23.4, "unit": "%"}]}
{"smiles": "COC(=O)C1=CO[C@@H](OC(=O)Nc2c(F)cccc2F)[C@H]2[C@@H]1CC[C@@H]2C", "note": "[I-276]", "values": [{"measurement": "inhibition at 320 µM (stock)", "setting": "[1]", "value": 8.2, "unit": "%"}, {"measurement": "inhibition at 320 µM (stock)", "setting": "HUFEC", "value": 5.7, "unit": "%"}]}
{"smiles": "CONC(=O)O[C@@H]1OC=C(C(=O)OC)[C@H]2CC=C(C)[C@@H]12", "note": "[I-137]", "values": [{"measurement": "inhibition at 320 µM (stock)", "setting": "[1]", "value": 6.4, "unit": "%"}, {"measurement": "inhibition at 320 µM (stock)", "setting": "HUFEC", "value": 3.3, "unit": "%"}]}
{"smiles": "C=CCN(CC=C)C(=O)O[C@@H]1OC=C(C(=O)OC)[C@H]2CC=C(C)[C@@H]12", "note": "[I-125]", "values": [{"measurement": "inhibition at 320 µM (stock)", "setting": "[1]", "value": 2.6, "unit": "%"}, {"measurement": "inhibition at 320 µM (stock)", "setting": "HUFEC", "value": 17.2, "unit": "%"}]}
{"smiles": "COC(=O)C1=CO[C@@H](OC(=O)NCc2ccc3c(c2)OCO3)[C@@H]2C(C)=CC[C@H]12", "note": "[I-129]", "values": [{"measurement": "inhibition at 320 µM (stock)", "setting": "[1]", "value": 19.5, "unit": "%"}, {"measurement": "inhibition at 320 µM (stock)", "setting": "HUFEC", "value": 4.3, "unit": "%"}]}
{"smiles": "CCCN(C)C(=O)O[C@@H]1OC=C(C(=O)OC)[C@H]2CC[C@H](C)[C@@H]12", "note": "[I-193]", "values": [{"measurement": "inhibition at 320 µM (stock)", "setting": "[1]", "value": 6.7, "unit": "%"}, {"measurement": "inhibition at 320 µM (stock)", "setting": "HUFEC", "value": 5.3, "unit": "%"}]}
{"smiles": "COC(=O)C1=CO[C@@H](OC(=O)Nc2ccc(OC(F)(F)F)cc2)[C@H]2[C@@H]1CC[C@@H]2C", "note": "[I-266]", "values": [{"measurement": "inhibition at 320 µM (stock)", "setting": "[1]", "value": 4.9, "unit": "%"}, {"measurement": "inhibition at 320 µM (stock)", "setting": "HUFEC", "value": 9.4, "unit": "%"}]}
{"smiles": "COC(=O)C1=CO[C@@H](OC(=O)NCCCCCO)[C@@H]2C(C)=CC[C@H]12", "note": "[I-104]", "values": [{"measurement": "inhibition at 320 µM (stock)", "setting": "[1]", "value": 3.8, "unit": "%"}, {"measurement": "inhibition at 320 µM (stock)", "setting": "HUFEC", "value": 24.1, "unit": "%"}]}
{"smiles": "COC(=O)C1=CO[C@@H](OC(=O)NC2Cc3ccccc3C2)[C@@H]2C(C)=CC[C@H]12", "note": "[I-145]", "values": [{"measurement": "inhibition at 320 µM (stock)", "setting": "[1]", "value": 17.5, "unit": "%"}, {"measurement": "inhibition at 320 µM (stock)", "setting": "HUFEC", "value": 27.3, "unit": "%"}]}
{"smiles": "COC(=O)C1=CO[C@@H](OC(=O)NCCSCc2ccccc2)[C@H]2[C@@H]1CC[C@@H]2C", "note": "[I-253]", "values": [{"measurement": "inhibition at 320 µM (stock)", "setting": "[1]", "value": 5.7, "unit": "%"}, {"measurement": "inhibition at 320 µM (stock)", "setting": "HUFEC", "value": 25.1, "unit": "%"}]}
{"smiles": "CCOC(=O)c1ccc(NC(=O)O[C@@H]2OC=C(C(=O)OC)[C@H]3CC[C@H](C)[C@@H]23)cc1", "note": "[I-268]", "values": [{"measurement": "inhibition at 320 µM (stock)", "setting": "[1]", "value": 7.6, "unit": "%"}, {"measurement": "inhibition at 320 µM (stock)", "setting": "HUFEC", "value": 8.4, "unit": "%"}]}
{"smiles": "COC(=O)C1=CO[C@@H](OC(=O)N(CCO)CCO)[C@@H]2C(C)=CC[C@H]12", "note": "[I-138]", "values": [{"measurement": "inhibition at 320 µM (stock)", "setting": "[1]", "value": 2.5, "unit": "%"}, {"measurement": "inhibition at 320 µM (stock)", "setting": "HUFEC", "value": 3.5, "unit": "%"}]}
{"smiles": "CNC(=O)OCC1=CC[C@@H]2C(C(=O)OC)=COC[C@H]12", "note": "[I-295]", "values": [{"measurement": "inhibition at 320 µM (stock)", "setting": "[1]", "value": 7.9, "unit": "%"}, {"measurement": "inhibition at 320 µM (stock)", "setting": "HUFEC", "value": 5.6, "unit": "%"}]}
{"smiles": "COCCCNC(=O)O[C@@H]1OC=C(C(=O)OC)[C@H]2CC[C@H](C)[C@@H]12", "note": "[I-226]", "values": [{"measurement": "inhibition at 320 µM (stock)", "setting": "[1]", "value": 15.3, "unit": "%"}, {"measurement": "inhibition at 320 µM (stock)", "setting": "HUFEC", "value": 17.2, "unit": "%"}]}
{"smiles": "COC(=O)C1=CO[C@@H](OC(=O)NCCc2ccccc2)[C@H]2[C@@H]1CC[C@@H]2C", "note": "[I-224]", "values": [{"measurement": "inhibition at 320 µM (stock)", "setting": "[1]", "value": 10.5, "unit": "%"}, {"measurement": "inhibition at 320 µM (stock)", "setting": "HUFEC", "value": 15.6, "unit": "%"}]}
{"smiles": "COC(=O)C1=CO[C@@H](OC(=O)NCCc2cccc(F)c2)[C@H]2[C@@H]1CC[C@@H]2C", "note": "[I-205]", "values": [{"measurement": "inhibition at 320 µM (stock)", "setting": "[1]", "value": 2, "unit": "%"}, {"measurement": "inhibition at 320 µM (stock)", "setting": "HUFEC", "value": 8.7, "unit": "%"}]}
{"smiles": "COC(=O)C1=CO[C@@H](OC(=O)NCCc2ccc(F)cc2)[C@H]2[C@@H]1CC[C@@H]2C", "note": "[I-212]", "values": [{"measurement": "inhibition at 320 µM (stock)", "setting": "[1]", "value": 7.8, "unit": "%"}, {"measurement": "inhibition at 320 µM (stock)", "setting": "HUFEC", "value": 21.5, "unit": "%"}]}
{"smiles": "COC(=O)C1=CO[C@@H](OC(=O)NCCCN(C)C)[C@H]2[C@@H]1CC[C@@H]2C", "note": "[I-210]", "values": [{"measurement": "inhibition at 320 µM (stock)", "setting": "[1]", "value": 8.9, "unit": "%"}, {"measurement": "inhibition at 320 µM (stock)", "setting": "HUFEC", "value": 8, "unit": "%"}]}
